Experimental data reported in article PMC6934184, “Selective DNA-PKcs inhibition extends the therapeutic index of localized radiotherapy and chemotherapy” (The Journal of Clinical Investigation, 2019).

Biological target: T1, LRRK2 G2019S (Homo sapiens, UniProt Q5S007, G2019S)
T1 construct: purchased Thermo Fisher Scientific (Life Technologies) SelectScreen
Assay: SelectScreen Adapta
Type: biochemical
Description: The in vitro kinase selectivity of NU5455 was determined using the SelectScreen Broad Assay Panel (Thermo Fisher Scientific) involving activity and binding assays (Supplemental Table 1). […] Class IA PI3Ks were measured using the p85α subunit.
Kinase [ATP] % Assay Kinase [ATP] % Assay Kinase [ATP] % Assay Kinase [ATP] % Assay […]
SGK (SGK1) Km app 8.5 Z MAP4K2 (GCK) Km app 2.7 Z TLK2 n/a -0.3 L STK38 (NDR) n/a -5.9 L
MERTK (cMER) Km app 8.3 Z CDK2/cyclin A Km app 2.7 Z TGFBR1 (ALK5) n/a -0.4 L MATK (HYL) Km app -6.3 Z
FYN Km app 8.3 Z EPHA1 Km app 2.7 Z CLK3 Km app -0.5 Z ABL1 E255K Km app -6.6 Z
TEC n/a 8.1 L CDK2/cyclin E1 n/a 2.7 L MAP3K14 (NIK) n/a -0.5 L STK17A (DRAK1) n/a -6.6 L
KIT V654A n/a 8.1 L TESK2 n/a 2.7 L AKT3 (PKB gamma) Km app -0.5 Z JAK2 JH1 JH2 Km app -6.7 Z
ROS1 Km app 8.0 Z SPHK1 Km app 2.7 A MAP3K9 (MLK1) Km app -0.5 Z PRKACB (PRKAC beta) n/a -6.8 L
FGFR3 K650E Km app 7.9 Z AMPK A2/B1/G1 Km app 2.6 Z IKBKB (IKK beta) Km app -0.6 Z PDGFRA (PDGFR alpha) Km app -6.8 Z
RAF1 (cRAF) Y340D Y341D 100 7.9 Z DYRK3 Km app 2.6 Z CAMK2A (CaMKII alpha) Km app -0.6 Z NEK9 Km app -7.2 Z
PI4KA (PI4K alpha) 10 7.8 A CSNK1D (CK1 delta) Km app 2.6 Z PRKCB1 (PKC beta I) Km app -0.7 Z PDK1 Km app -7.3 Z
HIPK2 Km app 7.8 Z ACVR2A n/a 2.5 L TTK n/a -0.7 L RPS6KB1 (p70S6K) Km app -7.8 Z
CSK Km app 7.6 Z DDR2 T654M n/a 2.5 L ZAK n/a -0.7 L STK38L (NDR2) n/a -8.4 L
PRKCG (PKC gamma) Km app 7.6 Z JAK2 Km app 2.5 Z IKBKE (IKK epsilon) Km app -0.7 Z ABL1 G250E Km app -8.5 Z
SRMS (Srm) Km app 7.5 Z HIPK3 (YAK1) Km app 2.5 Z CAMK2G (CaMKII gamma) n/a -0.8 L PRKD1 (PKC mu) Km app -8.5 Z
YES1 Km app 7.4 Z AMPK (A1/B1/G2) n/a 2.4 L TLK1 n/a -0.8 L CDK5/p35 Km app -8.6 Z
RPS6KA5 (MSK1) Km app 7.4 Z MYO3B (MYO3 beta) n/a 2.3 L MAPK12 (p38 gamma) Km app -0.8 Z PDGFRA T674I Km app -8.9 Z
TNIK n/a 7.3 L PASK Km app 2.3 Z PRKCI (PKC iota) Km app -0.8 Z BLK Km app -8.9 Z
FER Km app 7.1 Z ACVRL1 (ALK1) n/a 2.3 L PKN2 (PRK2) n/a -1.0 L PRKD2 (PKD2) Km app -9.1 Z
CDK16 (PCTK1)/cyclin Y n/a 7.0 L EGFR (ErbB1) L861Q Km app 2.2 Z PIM1 Km app -1.0 Z CSNK1G2 (CK1 gamma 2) Km app -9.3 Z
MST4 Km app 6.9 Z RPS6KA3 (RSK2) Km app 2.1 Z CDK5/p25 Km app -1.1 Z ROCK1 Km app -9.5 Z
FLT1 (VEGFR1) Km app 6.5 Z STK23 (MSSK1) Km app 2.0 Z SRPK1 Km app -1.1 Z PRKCB2 (PKC beta II) Km app -9.6 Z
DYRK1A Km app 6.4 Z ALK R1275Q n/a 2.0 L BRSK1 (SAD1) Km app -1.1 Z CSNK1G1 (CK1 gamma 1) Km app -9.9 Z
PRKCD (PKC delta) Km app 6.2 Z TBK1 Km app 2.0 Z MAP3K3 (MEKK3) n/a -1.1 L ABL2 (Arg) Km app -10.3 Z
EGFR (ErbB1) Km app 6.0 Z ACVR1B (ALK4) Km app 2.0 Z AMPK A1/B1/G1 Km app -1.2 Z STK3 (MST2) Km app -10.3 Z
CDC7/DBF4 n/a 6.0 L CDK3/cyclin E1 n/a 1.9 L WNK3 n/a -1.2 L CAMK4 (CaMKIV) Km app -10.4 Z
JAK3 Km app 6.0 Z KDR (VEGFR2) Km app 1.8 Z LATS1 n/a -1.3 L MKNK1 (MNK1) Km app -10.7 Z
MAPK13 (p38 delta) Km app 5.8 Z ULK1 n/a 1.8 L DMPK n/a -1.5 L FLT3 ITD n/a -11.6 L
FRAP1 (mTOR) Km app 5.7 Z AURKB (Aurora B) Km app 1.7 Z CDK2/cyclin A1 n/a -1.6 L CHEK2 (CHK2) Km app -11.7 Z
KIT Y823D n/a 5.6 L LRRK2 Km app 1.7 A LIMK1 n/a -1.7 L LTK (TYK1) Km app -13.1 Z
ITK Km app 5.5 Z MAP2K3 (MEK3) n/a 1.6 L DYRK1B Km app -1.8 Z JAK2 JH1 JH2 V617F Km app -13.8 Z
KIT Km app 5.3 Z DAPK1 Km app 1.6 A DDR1 n/a -1.8 L EPHA8 Km app -13.8 Z
CDK7/cyclin H/MNAT1 Km app 5.3 A EPHA6 n/a 1.6 L BTK Km app -2.0 Z EGFR (ErbB1) T790M L858R Km app -14.1 Z
RET Km app 5.2 Z MAP4K1 (HPK1) n/a 1.6 L ADRBK1 (GRK2) Km app -2.0 Z MET M1250T Km app -14.5 Z […]

T1 sequence (Q5S007 whole entry G2019S): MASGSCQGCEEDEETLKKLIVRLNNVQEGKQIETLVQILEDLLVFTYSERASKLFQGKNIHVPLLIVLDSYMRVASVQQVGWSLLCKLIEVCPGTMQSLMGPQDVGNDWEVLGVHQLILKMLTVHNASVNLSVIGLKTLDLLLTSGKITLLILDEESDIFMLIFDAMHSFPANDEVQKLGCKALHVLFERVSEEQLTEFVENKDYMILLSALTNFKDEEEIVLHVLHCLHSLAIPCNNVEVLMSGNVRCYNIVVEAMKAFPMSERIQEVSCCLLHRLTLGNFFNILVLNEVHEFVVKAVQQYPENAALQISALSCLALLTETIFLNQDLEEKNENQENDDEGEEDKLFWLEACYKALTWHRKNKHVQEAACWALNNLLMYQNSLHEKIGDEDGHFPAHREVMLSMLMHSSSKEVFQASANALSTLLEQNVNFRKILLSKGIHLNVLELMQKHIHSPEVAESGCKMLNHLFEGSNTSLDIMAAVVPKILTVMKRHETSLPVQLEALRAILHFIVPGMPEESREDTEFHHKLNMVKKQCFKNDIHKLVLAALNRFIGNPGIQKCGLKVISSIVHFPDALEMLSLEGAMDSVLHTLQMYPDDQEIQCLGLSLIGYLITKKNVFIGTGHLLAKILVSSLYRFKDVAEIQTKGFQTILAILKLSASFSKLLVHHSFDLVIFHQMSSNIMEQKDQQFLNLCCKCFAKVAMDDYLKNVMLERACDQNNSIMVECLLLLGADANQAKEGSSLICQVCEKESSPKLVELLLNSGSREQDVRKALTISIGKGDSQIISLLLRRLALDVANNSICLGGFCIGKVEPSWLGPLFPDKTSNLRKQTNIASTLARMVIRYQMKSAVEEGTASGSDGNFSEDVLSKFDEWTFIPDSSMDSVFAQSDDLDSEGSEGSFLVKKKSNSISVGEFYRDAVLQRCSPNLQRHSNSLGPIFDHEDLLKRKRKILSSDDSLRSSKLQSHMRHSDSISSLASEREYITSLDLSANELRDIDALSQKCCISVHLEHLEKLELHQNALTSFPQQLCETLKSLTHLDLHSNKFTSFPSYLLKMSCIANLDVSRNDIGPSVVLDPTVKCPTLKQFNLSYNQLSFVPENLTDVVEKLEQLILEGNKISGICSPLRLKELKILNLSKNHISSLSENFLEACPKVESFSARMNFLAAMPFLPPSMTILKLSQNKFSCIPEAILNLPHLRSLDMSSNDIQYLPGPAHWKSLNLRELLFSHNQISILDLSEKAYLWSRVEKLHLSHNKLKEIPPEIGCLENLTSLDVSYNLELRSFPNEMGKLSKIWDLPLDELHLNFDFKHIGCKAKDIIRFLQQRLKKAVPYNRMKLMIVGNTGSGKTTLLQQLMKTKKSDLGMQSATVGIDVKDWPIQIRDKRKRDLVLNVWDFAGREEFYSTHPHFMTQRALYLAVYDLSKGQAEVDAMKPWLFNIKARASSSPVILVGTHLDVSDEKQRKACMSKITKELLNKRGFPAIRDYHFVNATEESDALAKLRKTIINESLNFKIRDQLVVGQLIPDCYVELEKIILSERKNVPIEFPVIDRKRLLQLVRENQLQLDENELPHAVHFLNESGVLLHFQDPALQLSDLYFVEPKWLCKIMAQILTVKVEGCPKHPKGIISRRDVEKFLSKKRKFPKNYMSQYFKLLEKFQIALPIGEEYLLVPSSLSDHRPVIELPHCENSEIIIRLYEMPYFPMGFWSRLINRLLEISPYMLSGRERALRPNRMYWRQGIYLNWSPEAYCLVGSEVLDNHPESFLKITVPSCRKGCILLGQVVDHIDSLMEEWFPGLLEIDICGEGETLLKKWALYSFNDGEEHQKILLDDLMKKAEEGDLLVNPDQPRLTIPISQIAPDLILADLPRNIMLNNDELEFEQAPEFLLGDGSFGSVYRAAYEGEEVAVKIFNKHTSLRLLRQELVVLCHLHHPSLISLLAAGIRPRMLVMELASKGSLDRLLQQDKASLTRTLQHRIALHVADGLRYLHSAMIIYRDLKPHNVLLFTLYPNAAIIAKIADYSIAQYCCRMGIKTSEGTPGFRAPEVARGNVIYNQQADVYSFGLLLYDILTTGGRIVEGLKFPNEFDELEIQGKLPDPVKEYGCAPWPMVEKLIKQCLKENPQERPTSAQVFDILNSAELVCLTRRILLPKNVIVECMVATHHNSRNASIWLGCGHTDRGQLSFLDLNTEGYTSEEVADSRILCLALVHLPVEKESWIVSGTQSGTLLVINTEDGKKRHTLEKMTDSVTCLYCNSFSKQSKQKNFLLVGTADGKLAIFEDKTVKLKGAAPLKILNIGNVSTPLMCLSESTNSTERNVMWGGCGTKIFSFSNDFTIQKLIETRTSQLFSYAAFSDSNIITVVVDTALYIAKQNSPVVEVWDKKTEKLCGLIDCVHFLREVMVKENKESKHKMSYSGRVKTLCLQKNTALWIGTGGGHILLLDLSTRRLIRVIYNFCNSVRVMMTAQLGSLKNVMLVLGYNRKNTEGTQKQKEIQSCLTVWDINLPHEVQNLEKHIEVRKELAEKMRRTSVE

Question: Which inhibition at 1 µM does the source give for CN(C(=O)CN1CCOCC1)c1ccc2sc3c(-c4cccc5c(=O)cc(N6CC7CCC(C6)O7)oc45)cccc3c2c1 [NU5455] here?
Answer: 3%
